Experiment: Half cytotoxic concentration on normal mammary gland epithelial cells MCF-10A-5E (PrestoBlue)
Assay type: cell-based
Details: human, MCF-10A-5E normal mammary gland epithelial cells, 5 days culture, 10% horse serum, read-out: Non-toxicity (evaluated by CC50)
Protocol: Human normal mammary epithelial cells, MCF-10A-5E cells, were cultured in DMEM/F12K (1:1) medium, wherein Insulin-Transferrin-Selenium (ITS-G) (41400045; Thermo Fisher Scientific) diluted 1,000-fold for use, EGF stock (1 mg/mL) (10605-HNAE; Sino Biological) diluted 2,000-fold for use and Hydrocortisone stock (1 mg/mL) (S1696; Selleck Chemicals) diluted 2,000-fold for use were additionally added to the medium.
5×10^3 of the cells mentioned above were seeded in a 96-well plate and cultured overnight (at least 16 hours) in a carbon dioxide incubator.
After overnight incubation, the supernatant was removed. Next, after 200 μL of cell culture medium (containing 10% horse serum) containing different concentrations of test compound was added to each well of the 96-well plate, the 96-well plate was placed in a 5% carbon dioxide incubator at 37° C. for 5 days further culture. After that, an additional 30 μL of diluted PrestoBlue™ Cell Viability Reagent (Catalog Number: A13261; Thermo Fisher Scientific) (4 μL stock solution and 26 μL culture medium) was added to each well of the 96-well plate and the reaction was continued for further about 1 hour.
Finally, the fluorescence value at the wavelength of 535/615 nm of each well was read with a plate enzyme immunoassay analyzer, and the fatality rate of the compound on normal mammary gland epithelial cells were calculated using the following formula.
Moreover, the half cytotoxic concentration (50% cytotoxic concentration, CC50) of the compound on normal mammary gland epithelial cells was calculated with the fatality rate of compound on normal mammary gland epithelial cells at each concentration through the online half maximal inhibitory concentration (IC50) calculation software, ICso Calculator, provided by AAT Bioquest company on its website (https://www.aatbio.com/tools/ic50-calculator).
Finally, toxicity of the compound on normal mammary gland epithelial cells was evaluated by the calculated half cytotoxic concentration (CC50) of the compound on normal mammary gland epithelial cells.
In addition, the toxicity of the compound on normal mammary gland epithelial cells was evaluated by the half cytotoxic concentration (CC50) of the compound (one of Compound 1 to Compound 15 prepared above) on normal mammary gland epithelial cells through the human normal mammary gland epithelial cell line MCF-T0A-5E.

SMILES: O=C(Nc1cccc(-c2ccnc(-c3ccnc(Cl)c3)n2)c1)Nc1cc(Cl)nc(Cl)c1 [Compound 1]
- CC50 at 5 days: > 20 µM

SMILES: O=C(Nc1cccc(-c2ccnc(-c3cccc(C(F)(F)F)c3)n2)c1)Nc1cc(Cl)nc(Cl)c1 [Compound 2]
- CC50 at 5 days: 10 to 20 µM

SMILES: N#Cc1cccc(-c2nccc(-c3cccc(NC(=O)Nc4cc(Cl)nc(Cl)c4)c3)n2)c1 [Compound 3]
- CC50 at 5 days: 10 to 20 µM

SMILES: O=C(Nc1cccc(-c2ccnc(-c3ccc(F)c(F)c3)n2)c1)Nc1cc(Cl)nc(Cl)c1 [Compound 4]
- CC50 at 5 days: 5 to 10 µM

SMILES: O=C(Nc1cccc(-c2ccnc(-c3cccc(C(F)(F)F)c3)n2)c1)c1cc(Cl)nc(Cl)c1 [Compound 5]
- CC50 at 5 days: > 20 µM

SMILES: O=C(Nc1ccc(-c2ccnc(-c3ccncc3)n2)cc1)Nc1ccc(Cl)c(C(F)(F)F)c1 [Compound 6]
- CC50 at 5 days: 10 to 20 µM

SMILES: O=C(Nc1ccc(-c2ccnc(-c3cccc(C(F)(F)F)c3)n2)cc1)Nc1cc(Cl)nc(Cl)c1 [Compound 7]
- CC50 at 5 days: 10 to 20 µM

SMILES: O=C(Nc1ccc(-c2ccnc(-c3cccc(C(F)(F)F)c3)n2)cc1)Nc1ccc(Cl)c(C(F)(F)F)c1 [Compound 8]
- CC50 at 5 days: 10 to 20 µM

SMILES: O=C(Nc1ccc(-c2cccc(-c3cccc(C(F)(F)F)c3)n2)cc1)Nc1cc(Cl)nc(Cl)c1 [Compound 9]
- CC50 at 5 days: 10 to 20 µM

SMILES: FC(F)(F)c1cccc(-c2cccc(-c3ccc(NC(=S)Nc4cc(Cl)nc(Cl)c4)cc3)n2)c1 [Compound 10]
- CC50 at 5 days: > 20 µM

SMILES: N#Cc1cccc(-c2cccc(-c3ccc(NC(=S)Nc4cc(Cl)nc(Cl)c4)cc3)n2)c1 [Compound 11]
- CC50 at 5 days: > 20 µM

SMILES: O=C(Nc1ccc(-c2cccc(-c3ccncc3)n2)cc1)Nc1ccc(Cl)c(C(F)(F)F)c1 [Compound 12]
- CC50 at 5 days: 10 to 20 µM

SMILES: O=C(Nc1cccc(-c2cccc(-c3ccncc3)n2)c1)Nc1cc(Cl)nc(Cl)c1 [Compound 13]
- CC50 at 5 days: > 20 µM

SMILES: O=C(Nc1cccc(-c2cc(-c3cccc(C(F)(F)F)c3)ncn2)c1)Nc1cc(Cl)nc(Cl)c1 [Compound 14]
- CC50 at 5 days: 10 to 20 µM

SMILES: O=C(Nc1ccc(-c2nc(-c3ccccc3)ncc2Cl)cc1)Nc1cc(Cl)nc(Cl)c1 [Compound 15]
- CC50 at 5 days: 10 to 20 µM

Reference: patent US20250197373A1, “SMALL MOLECULE COMPOUND OR SALT THEREOF OR SOLVATE OF THEM, GUANINE NUCLEOTIDE-BINDING PROTEIN G(Q) SUBUNIT ALPHA (GNAQ) INHIBITOR CONTAINING THE SAME AND METHOD FOR TREATING AND/OR PREVENTING CANCER” (INDUSTRIAL TECHNOLOGY RESEARCH INSTITUTE, priority 2023, published 2025)
